According to patent US20240246942A1, “KINASE INHIBITORS FOR THE TREATMENT OF NEURODEGENERATIVE DISEASES” (priority 2020, published 2024):

Legend:
Experiment in all cases: biochemical
[1] = biological target: T1, panel of 374 wild-type kinases (Homo sapiens, UniProt P54756); conditions: read-out: % Enzyme Activity (relative to DMSO controls), EPHA5
T1 construct: purchased Reaction Biology Corporation

[2] = biological target: T2, panel of 374 wild-type kinases (Homo sapiens, UniProt Q13976); conditions: read-out: % Enzyme Activity (relative to DMSO controls), kinase PKG1a
T2 construct: purchased Reaction Biology Corporation
T2 sequence (Q13976 1-671): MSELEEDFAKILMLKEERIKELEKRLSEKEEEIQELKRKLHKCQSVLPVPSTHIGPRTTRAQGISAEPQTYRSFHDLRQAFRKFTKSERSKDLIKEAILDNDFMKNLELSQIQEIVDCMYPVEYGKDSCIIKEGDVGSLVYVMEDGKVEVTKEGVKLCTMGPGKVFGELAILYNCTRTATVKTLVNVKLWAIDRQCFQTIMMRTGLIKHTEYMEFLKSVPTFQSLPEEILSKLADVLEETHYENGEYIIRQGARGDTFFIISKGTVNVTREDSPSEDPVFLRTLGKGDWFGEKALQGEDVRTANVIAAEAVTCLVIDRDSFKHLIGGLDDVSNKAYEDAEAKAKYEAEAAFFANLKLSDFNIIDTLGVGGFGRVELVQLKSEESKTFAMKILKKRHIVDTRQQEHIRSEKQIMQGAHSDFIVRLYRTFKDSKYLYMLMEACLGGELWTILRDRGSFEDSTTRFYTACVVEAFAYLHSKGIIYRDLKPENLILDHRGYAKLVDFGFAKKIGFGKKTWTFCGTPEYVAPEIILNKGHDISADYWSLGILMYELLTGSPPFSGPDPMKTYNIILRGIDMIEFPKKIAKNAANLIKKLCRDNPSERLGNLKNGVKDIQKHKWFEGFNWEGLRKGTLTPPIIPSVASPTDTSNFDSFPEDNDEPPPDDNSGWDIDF

[3] = biological target: T3, panel of 374 wild-type kinases (Homo sapiens, UniProt Q92630); conditions: read-out: % Enzyme Activity (relative to DMSO controls), DYRK2
T3 construct: purchased Reaction Biology Corporation
T3 sequence (Q92630 1-601): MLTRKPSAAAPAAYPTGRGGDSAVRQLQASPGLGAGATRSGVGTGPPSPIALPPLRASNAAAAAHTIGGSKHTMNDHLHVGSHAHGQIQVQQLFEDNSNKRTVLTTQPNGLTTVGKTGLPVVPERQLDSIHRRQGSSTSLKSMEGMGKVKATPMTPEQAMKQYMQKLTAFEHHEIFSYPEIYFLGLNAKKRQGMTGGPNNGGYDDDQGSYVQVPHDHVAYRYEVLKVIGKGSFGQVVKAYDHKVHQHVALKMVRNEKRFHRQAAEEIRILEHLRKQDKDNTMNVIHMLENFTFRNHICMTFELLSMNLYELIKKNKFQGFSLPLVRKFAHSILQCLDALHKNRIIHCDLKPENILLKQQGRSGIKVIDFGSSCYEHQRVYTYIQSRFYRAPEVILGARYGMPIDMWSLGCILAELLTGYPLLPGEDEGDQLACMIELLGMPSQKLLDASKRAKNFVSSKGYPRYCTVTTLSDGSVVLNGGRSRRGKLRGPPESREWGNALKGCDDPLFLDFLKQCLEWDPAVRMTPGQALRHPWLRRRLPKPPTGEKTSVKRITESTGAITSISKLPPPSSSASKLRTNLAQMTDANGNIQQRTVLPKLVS

[4] = biological target: T4, panel of 374 wild-type kinases (Homo sapiens, UniProt Q08345); conditions: read-out: % Enzyme Activity (relative to DMSO controls), DDR1
T4 construct: purchased Reaction Biology Corporation
T4 sequence (Q08345 19-913): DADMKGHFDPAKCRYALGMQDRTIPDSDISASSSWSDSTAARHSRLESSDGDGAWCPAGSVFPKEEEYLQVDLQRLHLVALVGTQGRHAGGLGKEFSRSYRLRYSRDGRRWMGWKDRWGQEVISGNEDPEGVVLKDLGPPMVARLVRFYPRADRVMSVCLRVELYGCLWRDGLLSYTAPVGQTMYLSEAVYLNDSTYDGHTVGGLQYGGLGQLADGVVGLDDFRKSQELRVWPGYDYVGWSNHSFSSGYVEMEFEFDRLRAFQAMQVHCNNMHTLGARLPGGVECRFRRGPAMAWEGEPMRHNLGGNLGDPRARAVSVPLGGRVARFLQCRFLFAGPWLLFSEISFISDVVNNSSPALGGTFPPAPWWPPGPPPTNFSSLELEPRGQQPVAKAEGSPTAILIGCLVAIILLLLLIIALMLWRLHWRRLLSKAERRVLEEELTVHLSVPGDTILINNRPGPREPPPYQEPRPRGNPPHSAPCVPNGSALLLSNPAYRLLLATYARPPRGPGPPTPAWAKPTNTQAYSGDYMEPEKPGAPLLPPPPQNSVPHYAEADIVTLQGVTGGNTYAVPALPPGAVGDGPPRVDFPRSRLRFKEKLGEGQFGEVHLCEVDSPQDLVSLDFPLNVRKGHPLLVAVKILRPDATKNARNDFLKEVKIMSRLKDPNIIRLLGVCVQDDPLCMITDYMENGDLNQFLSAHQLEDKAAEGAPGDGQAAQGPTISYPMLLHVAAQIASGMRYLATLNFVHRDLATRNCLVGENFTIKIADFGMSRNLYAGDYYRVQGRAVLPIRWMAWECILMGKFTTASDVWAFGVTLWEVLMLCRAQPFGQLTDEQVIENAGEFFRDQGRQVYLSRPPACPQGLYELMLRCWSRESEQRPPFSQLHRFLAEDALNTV

[5] = biological target: T5, panel of 374 wild-type kinases (Homo sapiens, UniProt P29323); conditions: read-out: % Enzyme Activity (relative to DMSO controls), EPHB2
T5 construct: purchased Reaction Biology Corporation
T5 sequence (P29323 19-1055): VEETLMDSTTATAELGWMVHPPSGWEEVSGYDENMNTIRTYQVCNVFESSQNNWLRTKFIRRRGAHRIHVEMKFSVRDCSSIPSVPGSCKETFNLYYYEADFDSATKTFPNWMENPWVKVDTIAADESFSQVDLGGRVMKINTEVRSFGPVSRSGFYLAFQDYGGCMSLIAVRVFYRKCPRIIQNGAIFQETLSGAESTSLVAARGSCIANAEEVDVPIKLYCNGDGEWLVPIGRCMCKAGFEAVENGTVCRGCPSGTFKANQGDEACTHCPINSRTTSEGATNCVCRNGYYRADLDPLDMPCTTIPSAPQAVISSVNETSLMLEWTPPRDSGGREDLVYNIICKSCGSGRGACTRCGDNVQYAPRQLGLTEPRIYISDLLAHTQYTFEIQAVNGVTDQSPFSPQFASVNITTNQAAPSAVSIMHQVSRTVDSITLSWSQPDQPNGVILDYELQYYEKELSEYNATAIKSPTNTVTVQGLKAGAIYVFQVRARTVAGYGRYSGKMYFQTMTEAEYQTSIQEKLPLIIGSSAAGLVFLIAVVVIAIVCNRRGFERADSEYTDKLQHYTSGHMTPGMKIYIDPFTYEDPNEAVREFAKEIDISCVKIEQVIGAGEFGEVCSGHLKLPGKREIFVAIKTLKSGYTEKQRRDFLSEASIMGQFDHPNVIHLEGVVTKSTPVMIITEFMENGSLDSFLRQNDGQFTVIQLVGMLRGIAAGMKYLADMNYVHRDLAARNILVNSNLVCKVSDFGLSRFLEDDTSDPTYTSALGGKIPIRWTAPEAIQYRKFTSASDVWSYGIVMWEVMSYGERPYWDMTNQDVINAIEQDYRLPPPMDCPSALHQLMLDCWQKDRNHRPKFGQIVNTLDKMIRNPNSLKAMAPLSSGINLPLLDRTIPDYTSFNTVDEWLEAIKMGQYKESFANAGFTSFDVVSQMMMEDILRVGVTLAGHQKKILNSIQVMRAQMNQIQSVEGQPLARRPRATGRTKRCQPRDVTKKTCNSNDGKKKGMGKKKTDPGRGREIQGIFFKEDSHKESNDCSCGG

[6] = biological target: T6, panel of 374 wild-type kinases (Homo sapiens, UniProt Q15418); conditions: read-out: % Enzyme Activity (relative to DMSO controls), kinase RSK1
T6 construct: purchased Reaction Biology Corporation
T6 sequence (Q15418 whole entry): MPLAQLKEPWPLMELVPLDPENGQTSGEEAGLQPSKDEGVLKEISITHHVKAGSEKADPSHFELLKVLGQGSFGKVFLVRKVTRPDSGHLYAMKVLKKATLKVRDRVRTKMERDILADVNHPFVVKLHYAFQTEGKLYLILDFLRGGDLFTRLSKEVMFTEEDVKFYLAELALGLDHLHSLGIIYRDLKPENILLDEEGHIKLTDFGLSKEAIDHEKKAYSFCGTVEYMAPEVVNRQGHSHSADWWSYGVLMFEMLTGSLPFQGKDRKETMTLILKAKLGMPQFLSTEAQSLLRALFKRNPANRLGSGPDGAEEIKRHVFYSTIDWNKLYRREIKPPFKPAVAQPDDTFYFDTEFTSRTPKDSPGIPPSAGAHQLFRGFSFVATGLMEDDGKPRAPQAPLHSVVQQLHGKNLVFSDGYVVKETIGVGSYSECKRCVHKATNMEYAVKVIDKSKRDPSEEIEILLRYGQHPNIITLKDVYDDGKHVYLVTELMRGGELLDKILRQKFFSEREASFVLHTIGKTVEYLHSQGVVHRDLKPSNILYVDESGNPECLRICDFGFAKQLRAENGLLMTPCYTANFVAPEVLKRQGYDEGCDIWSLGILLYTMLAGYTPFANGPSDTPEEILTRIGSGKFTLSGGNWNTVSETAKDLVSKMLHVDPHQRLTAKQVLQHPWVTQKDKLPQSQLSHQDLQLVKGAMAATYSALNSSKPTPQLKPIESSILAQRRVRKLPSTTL

[7] = biological target: T7, panel of 374 wild-type kinases (Homo sapiens, UniProt P50613); conditions: read-out: % Enzyme Activity (relative to DMSO controls), CDK7/cyclin H
T7 construct: purchased Reaction Biology Corporation
T7 sequence (P50613 whole entry): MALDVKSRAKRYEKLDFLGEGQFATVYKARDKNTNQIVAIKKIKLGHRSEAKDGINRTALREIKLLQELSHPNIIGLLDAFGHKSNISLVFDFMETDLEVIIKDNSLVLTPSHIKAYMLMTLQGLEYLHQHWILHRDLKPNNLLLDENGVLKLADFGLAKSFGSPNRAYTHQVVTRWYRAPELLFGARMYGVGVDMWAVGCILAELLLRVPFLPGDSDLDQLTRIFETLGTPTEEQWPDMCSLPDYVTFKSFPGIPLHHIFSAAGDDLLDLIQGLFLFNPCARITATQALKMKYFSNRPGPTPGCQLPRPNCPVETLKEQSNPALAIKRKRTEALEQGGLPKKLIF

[8] = biological target: T8, panel of 374 wild-type kinases (Homo sapiens, UniProt Q6P2M8); conditions: read-out: % Enzyme Activity (relative to DMSO controls), CAMK1b
T8 construct: purchased Reaction Biology Corporation
T8 sequence (Q6P2M8 whole entry): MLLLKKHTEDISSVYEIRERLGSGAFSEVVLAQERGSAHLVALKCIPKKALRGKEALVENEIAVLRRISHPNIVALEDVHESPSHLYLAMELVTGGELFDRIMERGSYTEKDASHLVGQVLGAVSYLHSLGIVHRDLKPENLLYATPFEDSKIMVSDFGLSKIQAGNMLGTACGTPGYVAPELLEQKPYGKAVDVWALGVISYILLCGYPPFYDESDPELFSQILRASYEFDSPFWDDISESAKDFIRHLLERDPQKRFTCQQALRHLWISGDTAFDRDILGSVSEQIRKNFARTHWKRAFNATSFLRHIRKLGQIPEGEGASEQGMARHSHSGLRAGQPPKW

T1 sequence (P54756 25-1037): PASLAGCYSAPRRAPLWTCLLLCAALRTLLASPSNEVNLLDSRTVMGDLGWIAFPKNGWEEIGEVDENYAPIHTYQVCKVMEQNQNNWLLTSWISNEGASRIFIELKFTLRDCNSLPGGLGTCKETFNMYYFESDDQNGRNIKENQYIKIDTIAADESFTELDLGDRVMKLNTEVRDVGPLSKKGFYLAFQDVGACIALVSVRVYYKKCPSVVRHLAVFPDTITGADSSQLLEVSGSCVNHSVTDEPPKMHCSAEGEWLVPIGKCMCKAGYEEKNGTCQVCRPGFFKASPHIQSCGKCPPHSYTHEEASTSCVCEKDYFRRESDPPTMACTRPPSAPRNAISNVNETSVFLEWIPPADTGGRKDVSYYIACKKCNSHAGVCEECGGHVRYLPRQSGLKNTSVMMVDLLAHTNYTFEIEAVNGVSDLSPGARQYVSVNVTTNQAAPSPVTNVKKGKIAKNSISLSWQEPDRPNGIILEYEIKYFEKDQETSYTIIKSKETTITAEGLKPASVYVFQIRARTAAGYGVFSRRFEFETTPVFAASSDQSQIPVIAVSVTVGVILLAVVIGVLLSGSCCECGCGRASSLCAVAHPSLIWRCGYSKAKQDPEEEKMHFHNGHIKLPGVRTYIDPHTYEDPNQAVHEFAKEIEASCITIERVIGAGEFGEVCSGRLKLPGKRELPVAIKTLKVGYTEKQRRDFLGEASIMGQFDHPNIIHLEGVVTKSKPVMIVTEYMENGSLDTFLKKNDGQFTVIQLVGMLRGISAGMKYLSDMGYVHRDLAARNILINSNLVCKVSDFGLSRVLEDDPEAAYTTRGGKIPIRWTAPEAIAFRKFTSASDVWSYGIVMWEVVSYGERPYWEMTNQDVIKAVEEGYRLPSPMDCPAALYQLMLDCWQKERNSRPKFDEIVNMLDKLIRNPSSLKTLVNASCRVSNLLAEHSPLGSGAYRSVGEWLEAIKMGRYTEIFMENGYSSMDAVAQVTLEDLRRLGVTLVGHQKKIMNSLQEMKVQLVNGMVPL

## O=C(Nc1cnn(-c2csc(C(=O)NC3COC3)c2)c1)Nc1ccccc1Cl [Compound 17, 4-(4-(3-(2-chlorophenyl)ureido)-1H-pyrazol-1-yl)-N-(oxetan-3-yl)thiophene-2-carboxamide]
[1]
  remaining activity at 5 µM: 96.9%
[2]
  remaining activity at 5 µM: 110%
[3]
  remaining activity at 5 µM: 88.2%
[4]
  remaining activity at 5 µM: 98.4%
[5]
  remaining activity at 5 µM: 101%
[6]
  remaining activity at 5 µM: 92.4%
[7]
  remaining activity at 5 µM: 99.7%
[8]
  remaining activity at 5 µM: 96.3%

## O=C(Nc1cnn(-c2csc(C(=O)NC3COC3)c2)c1)Nc1c(F)cccc1Cl [Compound 25, 4-(4-(3-(2-chloro-6-fluorophenyl)ureido)-1H-pyrazol-1-yl)-N-(oxetan-3-yl)thiophene-2-carboxamide]
[1]
  remaining activity at 5 µM: 95%
[2]
  remaining activity at 5 µM: 93.2%
[3]
  remaining activity at 5 µM: 93.6%
[4]
  remaining activity at 5 µM: 88.9%
[5]
  remaining activity at 5 µM: 99.9%
[6]
  remaining activity at 5 µM: 96.3%
[7]
  remaining activity at 5 µM: 95.8%
[8]
  remaining activity at 5 µM: 102%

## Cc1sc(C(=O)NC2COC2)cc1-n1cc(NC(=O)Nc2c(F)cccc2Cl)cn1 [Compound 27, 4-(4-(3-(2-chloro-6-fluorophenyl)ureido)-1H-pyrazol-1-yl)-5-methyl-N-(oxetan-3-yl)thiophene-2-carboxamide]
[1]; 10 uM
  remaining activity at 10 µM: 106%
[2]; 10 uM
  remaining activity at 10 µM: 120%
[3]; 10 uM
  remaining activity at 10 µM: 96.3%
[4]; 10 uM
  remaining activity at 10 µM: 83.7%
[5]; 10 uM
  remaining activity at 10 µM: 109%
[6]; 10 uM
  remaining activity at 10 µM: 93.2%
[7]; 10 uM
  remaining activity at 10 µM: 103%
[8]; 10 uM
  remaining activity at 10 µM: 80.1%
